Eleven molecules from ChEMBL document CHEMBL5331051, “Cationic, amphipathic small molecules based on a triazine-piperazine-triazine scaffold as a new class of antimicrobial agents” (Eur J Med Chem, 2022) can be followed below.

Structures are written as SMILES. In brackets after ≈: the same amount, converted by molar mass. Positions of bridges follow the written chain, without caps; N, C: chain ends. Non-standard residues stand in square brackets, D forms with d. Residues, ends and D or L forms follow the SMILES beside them. *: point of attachment. Heptanoyl(6-Me) = CC(C)CCCCC(=O)*; dDab = NCC[C@@H](N)C(=O)O; Dab = NCC[C@H](N)C(=O)O

For one data set, the system named is Escherichia coli. In words: Antibacterial activity against Escherichia coli KCTC 1682 strain assessed as bacterial growth inhibition measured at 18 to 24 hrs by microdilution assay. It counts as functional. To be noted: time 18-24 hrs.
The test system of data set [1] is Pseudomonas aeruginosa. In words: Antibacterial activity against Pseudomonas aeruginosa KCTC 1637 strain assessed as bacterial growth inhibition measured at 18 to 24 hrs by microdilution assay. It counts as functional. The settings on record: time 18-24 hrs. In general terms: Dilution methods test growth across graded concentrations, often in twofold steps.
For data set [2], the system named is Staphylococcus epidermidis. As to the kind of experiment: Antibacterial activity against Staphylococcus epidermidis KCTC 1917 strain assessed as bacterial growth inhibition measured at 18 to 24 hrs by microdilution assay. The settings on record: time 18-24 hrs. The class given is functional.
For another data set, the system named is Staphylococcus aureus. In words: Antibacterial activity against Staphylococcus aureus KCTC 1621 strain assessed as bacterial growth inhibition measured at 18 to 24 hrs by microdilution assay. The class given is functional. The settings on record: time 18-24 hrs.
A further data set concerns Erythrocyte. In words: Hemolytic activity in sheep RBC assessed as minimal hemolytic concentration causing 10% hemolysis incubated for 1 hr by ELISA. The class given is toxicity, cell-based, Ovis aries.
Data set [3] relates to Lipopolysaccharide (LPS). In words: Binding affinity to Escherichia coli O111:B4 lipopolysaccharide assessed as suppression of FTIC labeled LPS binding to mouse RAW264.7 cells at 20 ug/ml pretreated with LPS followed by compound addition by flow cytometer assay (reference value: 67.4%). It counts as cell-based. The settings on record: dose 20.0 µg/ml. For orientation: A flow cytometer gives signals particle by particle.

In data set [4] the test system is Lipopolysaccharide (LPS). In words: Binding affinity to Escherichia coli O111:B4 lipopolysaccharide assessed as suppression of FTIC labeled LPS binding to mouse RAW264.7 cells at 20 ug/ml pretreated LPS with cells for 1 hr followed by compound addition measured after 1 hr by flow cytometer assay (reference value: 48.12%). It counts as cell-based. The settings on record: dose 20.0 µg/ml.

Data set [5] has as its system Pseudomonas aeruginosa. As to the kind of experiment: Antibiofilm activity against multidrug-resistant Pseudomonas aeruginosa assessed as inhibition of biofilm formation. It counts as functional.
The subject of data set [6] is Pseudomonas aeruginosa. As to the kind of experiment: Antibiofilm activity against multidrug-resistant Pseudomonas aeruginosa assessed as biofilm eradication. It counts as functional.

In general, MIC refers to the lowest concentration that inhibits growth of the organism. Turning to `NCCCNc1nc(NCCCN)nc(N2CCN(c3nc(NCCCN)nc(NCCCN)n3)C(Cc3ccccc3)C2)n1` (centres undefined), the MIC was found to be 51.2 µM (≈ 31.9 µg/mL) in the data set with Escherichia coli, 51.2 µM (≈ 31.9 µg/mL) in the data set with Pseudomonas aeruginosa [1], 25.6 µM (≈ 15.9 µg/mL) in data set [2] and 25.6 µM (≈ 15.9 µg/mL) in the data set with Staphylococcus aureus. Further, the MHC in the data set with Erythrocyte is above 409.6 µM.
For `N=C(N)NCCCNc1nc(NCCCN)nc(N2CCN(c3nc(NCCCN)nc(NCCCN)n3)CC2Cc2ccccc2)n1` (centres undefined), the minimal inhibitory concentration (MIC) in the data set with Escherichia coli came to 24 µM (≈ 16 µg/mL); in the data set with Pseudomonas aeruginosa [1] it was 24 µM (≈ 16 µg/mL); in [2], 12 µM (≈ 7.98 µg/mL); in the data set with Staphylococcus aureus, 12 µM (≈ 7.98 µg/mL). Moreover, the MHC in the data set on Erythrocyte was above 384 µM.
As for `CC(C)CCCCC(=O)N[C@@H](CCN)C(=O)N[C@H](C(=O)N[C@@H](CCN)C(=O)N[C@H]1CCNC(=O)[C@H]([C@@H](C)O)NC(=O)[C@H](CCN)NC(=O)[C@H](CCN)NC(=O)[C@H](CC(C)C)NC(=O)[C@@H](Cc2ccccc2)NC(=O)[C@@H](CCN)NC1=O)[C@@H](C)O` ({Heptanoyl(6-Me)}-[Dab]T[Dab][Dab][dDab][dF]L[Dab][Dab]T; lactam 4-C), the Flu intensity with Lipopolysaccharide (LPS) [3] was found to be 12.3%; with Lipopolysaccharide (LPS) [4], 45.3%.
Turning to `NCCN(CCN)c1nc(NCc2ccccc2)nc(N2CCN(c3nc(NCc4ccc5ccccc5c4)nc(N(CCN)CCN)n3)C(Cc3ccccc3)C2)n1` (centres undefined), the MIC with Escherichia coli came out at 40 µM (≈ 31.9 µg/mL); in the data set on Pseudomonas aeruginosa [1] it was 20 µM (≈ 15.9 µg/mL); in [2] it was 5 µM (≈ 3.99 µg/mL); in the data set on Staphylococcus aureus, 5 µM (≈ 3.99 µg/mL). Also, the MHC in the data set with Erythrocyte is above 320 µM.
Turning to `N=C(N)NCCN(CCNC(=N)N)c1nc(NCc2ccccc2)nc(N2CCN(c3nc(NCc4ccc5ccccc5c4)nc(N(CCNC(=N)N)CCNC(=N)N)n3)C(Cc3ccccc3)C2)n1` (centres undefined), the MIC with Escherichia coli came out at 16.6 µM (≈ 16 µg/mL); in the data set on Pseudomonas aeruginosa [1], 16.6 µM (≈ 16 µg/mL); in [2] it was 4.1 µM (≈ 3.96 µg/mL); in the data set with Staphylococcus aureus, 4.1 µM (≈ 3.96 µg/mL). In addition, the MHC with Erythrocyte amounted to 37.3 µM.
With `N=C(N)NCCCN(CCCNC(=N)N)c1nc(NCc2ccccc2)nc(N2CC(Cc3ccccc3)N(c3nc(NCc4ccc5ccccc5c4)nc(N(CCCNC(=N)N)CCCNC(=N)N)n3)CC2Cc2ccccc2)n1` (centres undefined), the MIC came to 31.4 µM (≈ 34.9 µg/mL) in the data set with Escherichia coli, 7.8 µM (≈ 8.67 µg/mL) in the data set on Pseudomonas aeruginosa [1], 3.9 µM (≈ 4.33 µg/mL) in data set [2] and 15.7 µM (≈ 17.4 µg/mL) in the data set with Staphylococcus aureus. Besides, the MHC in the data set on Erythrocyte came out at 56.8 µM.
Taken in the same sequence, the figures for `N=C(N)NCCCCNc1nc(NCCCCNC(=N)N)nc(N2CCN(c3nc(NCCCCNC(=N)N)nc(NCCCCNC(=N)N)n3)C(Cc3ccccc3)C2)n1` (centres undefined) were 18.9 µM (≈ 16 µg/mL), 9.4 µM (≈ 7.96 µg/mL), 4.7 µM (≈ 3.98 µg/mL), 9.4 µM (≈ 7.96 µg/mL) and above 302.1 µM.
Turning to `N=C(N)NCCCNc1nc(NCCCNC(=N)N)nc(N2CC(Cc3ccccc3)N(c3nc(NCCCNC(=N)N)nc(NCCCNC(=N)N)n3)CC2Cc2ccccc2)n1` (centres undefined), the minimal inhibitory concentration (MIC) was found to be 9.1 µM (≈ 8.02 µg/mL) with Escherichia coli, 18.1 µM (≈ 15.9 µg/mL) in the data set on Pseudomonas aeruginosa [1], 9.1 µM (≈ 8.02 µg/mL) in data set [2] and 4.5 µM (≈ 3.97 µg/mL) with Staphylococcus aureus. Moreover, the MHC in the data set with Erythrocyte is above 290.3 µM. In addition, the MBEC50 in the data set with Pseudomonas aeruginosa [5] and with Pseudomonas aeruginosa [6] was 18.1 µM throughout. For the same molecule, the MBEC90 with Pseudomonas aeruginosa [5] and in the data set on Pseudomonas aeruginosa [6] was 145.2 µM throughout. Moreover, the MBIC with Pseudomonas aeruginosa [5] turned out to be 36.3 µM. In addition, the MBIC50 with Pseudomonas aeruginosa [5] came out at 4.5 µM.
For `NCCNc1nc(NCCN)nc(N2CCN(c3nc(NCCN)nc(NCCN)n3)C(Cc3ccccc3)C2)n1` (centres undefined), the minimal inhibitory concentration (MIC) amounted to 56.4 µM (≈ 32 µg/mL) in the data set with Escherichia coli, 28.2 µM (≈ 16 µg/mL) with Pseudomonas aeruginosa [1], 56.4 µM (≈ 32 µg/mL) in data set [2] and 56.4 µM (≈ 32 µg/mL) in the data set on Staphylococcus aureus. In addition, the MHC in the data set with Erythrocyte is above 451.1 µM.
`N=C(N)NCCCCNc1nc(NCCCCNC(=N)N)nc(N2CC(Cc3ccccc3)N(c3nc(NCCCCNC(=N)N)nc(NCCCCNC(=N)N)n3)CC2Cc2ccccc2)n1` (centres undefined): the MIC (in the data set with Escherichia coli; in the data set with Pseudomonas aeruginosa [1]; in data set [2]; in the data set with Staphylococcus aureus) was 8.5 µM (≈ 7.97 µg/mL) throughout. The MHC with Erythrocyte is above 273.2 µM. Besides, the MBEC50 in the data set on Pseudomonas aeruginosa [5] and with Pseudomonas aeruginosa [6] was 17.1 µM in each case. The MBEC90 in the data set with Pseudomonas aeruginosa [5] and in the data set with Pseudomonas aeruginosa [6] was 68.3 µM each time. Moreover, the MBIC in the data set with Pseudomonas aeruginosa [5] is 34.1 µM. In addition, the MBIC50 in the data set on Pseudomonas aeruginosa [5] turned out to be 8.5 µM.
Regarding `NCCCCNc1nc(NCCCCN)nc(N2CCN(c3nc(NCCCCN)nc(NCCCCN)n3)C(Cc3ccccc3)C2)n1` (centres undefined), the MIC in the data set with Escherichia coli amounted to 47 µM (≈ 31.9 µg/mL); with Pseudomonas aeruginosa [1], 47 µM (≈ 31.9 µg/mL); in data set [2], 23.5 µM (≈ 16 µg/mL); with Staphylococcus aureus, 23.5 µM (≈ 16 µg/mL). Besides, in the data set on Erythrocyte, the MHC was above 376.3 µM.
